Publication PMC3914206

Key:
Type in all cases: binding
panel of 442 kinases [1] = target: T1, panel of 442 kinases (Homo sapiens, UniProt P04629); conditions: kinase TRKA; compound concentration 10 µM
T1 construct: purchased KINOMEscan
Source text: (§1) We assessed the selectivity of members of this scaffold using the KINOMEscan methodology across a near comprehensive panel of 442 kinases [[18,27]].

panel of 442 kinases [2] = target: T2, panel of 442 kinases (Homo sapiens, UniProt Q13233); conditions: Compound Concentration 10 µM
T2 construct: purchased KINOMEscan
T2 sequence (Q13233 whole entry): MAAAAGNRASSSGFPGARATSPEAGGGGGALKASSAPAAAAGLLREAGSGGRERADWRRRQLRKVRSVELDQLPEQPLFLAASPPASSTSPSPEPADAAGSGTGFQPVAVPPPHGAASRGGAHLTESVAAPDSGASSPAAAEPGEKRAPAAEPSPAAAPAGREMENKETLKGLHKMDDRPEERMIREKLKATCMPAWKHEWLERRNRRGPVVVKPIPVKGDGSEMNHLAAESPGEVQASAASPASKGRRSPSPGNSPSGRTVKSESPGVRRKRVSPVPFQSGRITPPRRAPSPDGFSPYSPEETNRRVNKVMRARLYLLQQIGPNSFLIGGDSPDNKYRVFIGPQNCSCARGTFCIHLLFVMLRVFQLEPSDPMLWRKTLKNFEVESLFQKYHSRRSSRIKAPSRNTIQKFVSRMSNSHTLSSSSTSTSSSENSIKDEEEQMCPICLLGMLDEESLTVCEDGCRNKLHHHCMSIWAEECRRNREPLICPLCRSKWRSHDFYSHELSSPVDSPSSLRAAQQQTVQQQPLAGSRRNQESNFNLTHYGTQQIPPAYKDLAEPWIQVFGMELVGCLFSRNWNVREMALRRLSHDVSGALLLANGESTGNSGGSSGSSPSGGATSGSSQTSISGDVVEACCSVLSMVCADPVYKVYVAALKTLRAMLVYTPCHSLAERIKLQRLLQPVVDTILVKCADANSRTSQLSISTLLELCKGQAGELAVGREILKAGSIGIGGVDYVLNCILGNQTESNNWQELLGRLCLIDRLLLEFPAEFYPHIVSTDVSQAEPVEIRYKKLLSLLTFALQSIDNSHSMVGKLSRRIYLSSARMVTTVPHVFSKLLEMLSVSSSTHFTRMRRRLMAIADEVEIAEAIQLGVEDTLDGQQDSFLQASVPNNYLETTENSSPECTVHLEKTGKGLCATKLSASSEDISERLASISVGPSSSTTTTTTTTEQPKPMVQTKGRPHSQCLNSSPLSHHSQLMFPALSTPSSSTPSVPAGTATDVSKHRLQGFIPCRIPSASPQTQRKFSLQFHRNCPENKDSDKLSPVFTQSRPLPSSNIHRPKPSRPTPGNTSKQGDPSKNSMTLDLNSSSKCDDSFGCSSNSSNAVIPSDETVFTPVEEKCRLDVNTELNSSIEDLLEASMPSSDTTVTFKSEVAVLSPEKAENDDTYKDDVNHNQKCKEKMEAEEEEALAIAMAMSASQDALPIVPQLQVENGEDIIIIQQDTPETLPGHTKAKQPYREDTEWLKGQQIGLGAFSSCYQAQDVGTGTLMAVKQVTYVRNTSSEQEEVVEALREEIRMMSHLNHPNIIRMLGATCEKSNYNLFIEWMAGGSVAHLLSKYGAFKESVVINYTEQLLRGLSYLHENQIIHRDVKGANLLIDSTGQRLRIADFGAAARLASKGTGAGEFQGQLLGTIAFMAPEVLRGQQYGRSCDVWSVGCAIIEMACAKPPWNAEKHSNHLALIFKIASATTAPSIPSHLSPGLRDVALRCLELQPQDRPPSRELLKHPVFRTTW
Source text: as §1

panel of 442 kinases [3] = target: T3, panel of 442 kinases (Homo sapiens, UniProt Q8TD08); conditions: Compound Concentration 10 µM
T3 construct: purchased KINOMEscan
T3 sequence (Q8TD08 1-544): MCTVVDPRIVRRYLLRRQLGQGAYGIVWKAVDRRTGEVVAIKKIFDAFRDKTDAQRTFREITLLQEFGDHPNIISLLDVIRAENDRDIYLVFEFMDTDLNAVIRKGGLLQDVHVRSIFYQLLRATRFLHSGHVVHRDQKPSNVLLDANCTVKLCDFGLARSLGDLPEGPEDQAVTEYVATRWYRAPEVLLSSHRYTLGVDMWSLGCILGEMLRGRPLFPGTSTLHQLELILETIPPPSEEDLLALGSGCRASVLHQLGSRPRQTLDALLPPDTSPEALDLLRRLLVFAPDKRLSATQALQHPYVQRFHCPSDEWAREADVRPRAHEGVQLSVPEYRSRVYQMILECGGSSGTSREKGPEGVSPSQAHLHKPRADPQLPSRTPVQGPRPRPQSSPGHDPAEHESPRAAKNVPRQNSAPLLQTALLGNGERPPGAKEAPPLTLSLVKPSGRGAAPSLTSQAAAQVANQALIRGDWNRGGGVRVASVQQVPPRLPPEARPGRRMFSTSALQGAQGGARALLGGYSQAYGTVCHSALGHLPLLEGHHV
Source text: as §1

T1 sequence (P04629 33-796): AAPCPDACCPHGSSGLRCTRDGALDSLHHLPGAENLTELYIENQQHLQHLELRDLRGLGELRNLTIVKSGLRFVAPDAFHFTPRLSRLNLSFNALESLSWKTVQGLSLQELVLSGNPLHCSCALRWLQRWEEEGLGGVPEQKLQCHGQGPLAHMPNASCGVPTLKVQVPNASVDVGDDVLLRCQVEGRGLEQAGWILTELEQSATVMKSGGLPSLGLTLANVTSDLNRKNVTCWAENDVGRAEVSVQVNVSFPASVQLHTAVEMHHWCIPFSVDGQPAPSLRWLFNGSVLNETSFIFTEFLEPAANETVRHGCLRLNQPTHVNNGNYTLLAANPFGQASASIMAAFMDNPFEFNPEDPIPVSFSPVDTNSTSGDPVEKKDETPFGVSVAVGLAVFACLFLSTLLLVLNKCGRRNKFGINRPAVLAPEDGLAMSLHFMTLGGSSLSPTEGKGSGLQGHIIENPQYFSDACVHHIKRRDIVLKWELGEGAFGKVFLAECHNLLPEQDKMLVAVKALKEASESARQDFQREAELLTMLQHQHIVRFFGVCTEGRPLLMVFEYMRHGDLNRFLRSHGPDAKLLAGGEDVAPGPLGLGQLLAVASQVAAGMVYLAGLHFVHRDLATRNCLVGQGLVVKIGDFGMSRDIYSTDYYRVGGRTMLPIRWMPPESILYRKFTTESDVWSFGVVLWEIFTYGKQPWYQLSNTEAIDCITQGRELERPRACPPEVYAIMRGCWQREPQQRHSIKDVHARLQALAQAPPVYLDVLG

Structure (SMILES)	% Ctrl, TRKA (panel of 442 kinases [1]) [% Ctrl]	KINOMEscan: MAP3K1 (panel of 442 kinases [2])	KINOMEscan: ERK8 (panel of 442 kinases [3])
COc1cc(C(=O)N2CCC(N3CCN(C)CC3)CC2)ccc1Nc1ncc2c(n1)N1CCc3cccc(c31)C(=O)N2C [Compound 24]	93	–	–
CCOc1cc(C(=O)N2CCC(N3CCN(C)CC3)CC2)ccc1Nc1ncc2c(n1)N(C1CCCC1)c1ccccc1C(=O)N2C [Compound 26]	100	93	100
COc1cc(C(=O)N2CCC(N3CCN(C)CC3)CC2)ccc1Nc1ncc2c(n1)N(C1CCCC1)c1ccccc1C(=O)N2C [Compound 25, 11-cyclopentyl-2-((2-methoxy-4-(4-(4-methylpiperazin-1-yl)piperidine-1-carbonyl)phenyl)amino)-5-methyl-5H-benzo[e]pyrimido[5,4-b][1,4]diazepin-6(11H)-one]	78	100	99
COc1cc(C(=O)N2CCC(N3CCN(C)CC3)CC2)ccc1Nc1ncc2c(n1)N(C)c1ccccc1C(=O)N2C [15 (LRRK2-IN-1)]	69	95	100
